Measurements from patent US5723461A, “Quinoxalines, a process for their preparation and their use” (Hoechst Aktiengesellschaft, priority 1994, dated 1998).
In brackets after ≈: the same amount, converted by molar mass.

Legend:
HIV = assay: Testing of preparations against HIV in cell culture (T-cell culture assay); type: cell-based; settings: Human immunodeficiency virus 1, 72 h, HIV-infected lymphocytes, 3 days at 37° C., lowest concentration at which no giant cells occurred, read-out: MIC EC50
Method: Testing of preparations against HIV in cell culture
Description of the method:
Complete medium additionally contains 20% fetal calf serum and 40 IU/ml recombinant interleukin 2.
Lymphocytes, which have been isolated from fresh donor blood by means of Ficoll® gradient centrifugation, are cultured, for 36 hours at 37° C. and under 5% CO2, in complete medium which additionally contains […] phytohemagglutinin (Wellcome). After 10% DMSO has been added, the cells are frozen at a cell density of 5×10^6 and stored in liquid nitrogen. For the experiment, the cells are thawed, washed in the RPMI medium and cultured for 3 to 4 days in the complete medium.
The test preparations were dissolved in DMSO at a concentration of 16.7 mg/ml, and these solutions were diluted with complete medium to a concentration of 1 mg/ml. 0.4 ml of medium was initially introduced into 24-well multiwell plates. After 0.1 ml of the dissolved preparation had been added to the upper row of the plate, a geometric dilution series was produced by transferring 0.1 ml on each occasion. Preparation-free controls contained 0.4 ml of complete medium containing 0.5% DMSO.
Lymphocyte cultures having a cell count of 5×10^5 cells/ml were infected by adding a 1/50 volume of the supernatant from HIV-infected lymphocyte cultures. The titer of these culture supernatants was determined by end-point dilution to be 1-5×10^6 infectious units/ml. After having been incubated at 37° C. for 30 min, the infected lymphocytes were centrifuged off and taken up once again in the same volume of medium. 0.6 ml of this cell suspension was added to each of the wells in the test plate. The assay mixtures were incubated at 37° C. for 3 days.
The infected cell cultures were examined under the microscope for the presence of giant cells, which are indicative of active viral replication in the culture. The lowest preparation concentration at which no giant cells occurred was determined and taken to be the inhibitory concentration against HIV. As a control, the supernatants from the culture plates were assayed for the presence of HIV antigen using an HIV antigen test in accordance with the manufacturer's (Organon) instructions.

[1] = target: T1, HIV reverse transcriptase (Human immunodeficiency virus type 1 group M subtype B, UniProt P04585); assay: Inhibition of HIV reverse transcriptase (scintillation proximity assay); type: biochemical; settings: Reverse transcriptase assay (SPA), 60 min, 37° C.
T1 construct: purchased HT Biotechnology Ltd., Cambridge, UK; host or cells: E. coli
Method: Examination of the substances for their ability to inhibit HIV reverse transcriptase
The activity of the reverse transcriptase (RT) was determined using a scintillation proximity assay (SPA).
The reagent kit for the RT SPA was obtained from Amersham/Buchler (Braunschweig). The RT enzyme (derived from HIV and cloned in E. coli) was obtained from HT Biotechnology Ltd., Cambridge, UK.
The test was carried out in accordance with the manufacturer's (Amersham) methods manual, with the following modifications:
Bovine serum albumin was added to the assay buffer to a final concentration of 0.5 mg/ml.
The test was carried out in Eppendorf tubes using an assay mixture volume of 100 μl.
The manufacturer's RT concentrate (5000 U/ml) was diluted to an activity of 15 U per ml using 20 mM tris-HCl buffer, pH 7.2, 30% glycerol.
The assay mixtures were incubated for 60 min (37° C.).
After the reaction had been stopped and "developed" with the bead suspension, 130 μl of assay mixture were transferred into 4.5 ml of 10 mM tris-HCl buffer, pH 7.4, 0.15M NaCl and the tritium activity was measured in a β-counter.
In order to carry out a preliminary test of their inhibitory activity, the substances were dissolved in DMSO (stock solution, c=1 mg/ml) and tested when diluted 10^-1, 10^-2, 10^-3 etc. in DMSO.
In order to determine IC50 values, the stock solutions of inhibitor were further diluted in 50 mM tris-HCl buffer, pH 8, and tested at suitable concentrations.
The concentration associated with 50% inhibition of the enzyme was ascertained from the plot of RT activity against log Cinh.

| SMILES | EC50 (HIV) | IC50 [1] |
| --- | --- | --- |
| COC[C@H]1C(=S)Nc2ccc(F)cc2N1C(=O)OC(C)C [Example 140l] | 8 ng/mL (≈ 0.0256 µM) | 70.4 nM |
| COC[C@H]1C(=O)Nc2ccc(F)cc2N1C(=O)OC(C)C [Example 84o] | 80 ng/mL (≈ 0.27 µM) |  |
| CCCOC(=O)N1c2cc(Cl)ccc2NC(=O)[C@@H]1CSC [Example 60] | 40 ng/mL (≈ 0.122 µM) | 30.4 nM |
| CCC[C@H]1C(=O)Nc2ccc(F)cc2N1C(=O)OC(C)C [Example 40] | 80 ng/mL (≈ 0.272 µM) | 34 to 340 nM |
| C=C(C)OC(=O)N1c2cc(OC)ccc2NC(=O)[C@@H]1CSC [Example 68] | 8 ng/mL (≈ 0.0248 µM) | 49.6 nM |
| CSC[C@H]1C(=O)Nc2ccc(F)cc2N1C(=O)OC(C)C [Example 42] | < 8 ng/mL |  |
| CCOc1ccc2c(c1)N(C(=O)OC(C)C)[C@@H](CSC)C(=S)N2 [Example 108] | < 5 ng/mL | 22.6 nM |
| C=C(C)OC(=O)N1c2cc(Cl)ccc2NC(=O)[C@@H]1CSC [Example 59] | 20 ng/mL (≈ 0.0612 µM) | 55.1 nM |
| CCCC[C@H]1C(=S)Nc2ccccc2N1C(=O)OC(C)C [Example 88] | < 40 ng/mL |  |
| CCC(C)COC(=O)N1c2cc(OC)ccc2NC(=S)[C@@H]1CSC (stereo partly shown) [Example 125] |  | 40.7 nM |
| CSC[C@H]1C(=O)Nc2ccccc2N1C(=O)OC(C)C [Example 34] | < 1 ng/mL | 34 to 340 nM |
| C=C(C)OC(=O)N1c2cc(F)ccc2NC(=O)[C@@H]1CC [Example 62] | 80 ng/mL (≈ 0.287 µM) | 331 nM |
| CCC(C)OC(=O)N1c2cc(F)ccc2NC(=O)[C@@H]1CC (stereo partly shown) [Example 84j] | < 80 ng/mL | 296 nM |
| CC(C)OC(=O)N1c2cc(F)ccc2NC(=O)[C@@H]1C [Example 84i] | 80 ng/mL (≈ 0.3 µM) | 638 nM |
| CCCCOC(=O)N1c2cc(F)ccc2NC(=O)[C@@H]1CC [Example 84l] | 80 ng/mL (≈ 0.272 µM) | 510 nM |
| CSC[C@H]1C(=S)Nc2ccc(F)cc2N1C(=O)OC(C)C [Example 98] | 3 ng/mL (≈ 0.00913 µM) | 36.5 nM |
| CCC[C@H]1C(=S)Nc2ccc(F)cc2N1C(=O)OC(C)C [Example 96] | 80 ng/mL (≈ 0.258 µM) | 51.5 nM |
| C=CCOC(=O)N1c2cc(Cl)ccc2NC(=S)[C@@H]1C [Example 140c] | 40 ng/mL (≈ 0.135 µM) | 371 nM |
| CC[C@H]1C(=S)Nc2ccc(OC)cc2N1C(=O)OC(C)C [Example 99] | < 1 ng/mL | 35.7 nM |
| CCCOc1ccc2c(c1)N(C(=O)OC(C)C)[C@@H](CSC)C(=O)N2 [Example 54] | 40 ng/mL (≈ 0.113 µM) |  |
| CCC[C@H]1C(=S)Nc2ccccc2N1C(=O)OC(C)C [Example 87] | 4 ng/mL (≈ 0.0137 µM) | 92.3 nM |
| CC[C@H]1C(=O)Nc2ccc(OC)cc2N1C(=O)OC(C)C [Example 43] | < 1 ng/mL |  |
| CCC(C)OC(=O)N1c2cc(OC)ccc2NC(=S)[C@@H]1CSC (stereo partly shown) [Example 140f] | 8 ng/mL (≈ 0.0226 µM) | 53.6 nM |
| CCOC(=O)N1c2cc(Cl)ccc2NC(=O)[C@@H]1CSC [Example 61] | 2 ng/mL (≈ 0.00635 µM) | 31.8 to 318 nM |
| C=C(C)OC(=O)N1c2cc(Cl)ccc2NC(=S)[C@@H]1C [Example 140d] | 10 ng/mL (≈ 0.0337 µM) | 91 nM |

| SMILES | EC50 (HIV) | IC50 [1] |
| --- | --- | --- |
| CCC(C)OC(=O)N1c2cc(OC)ccc2NC(=O)[C@@H]1CSC (stereo partly shown) [Example 84g] |  | 349 nM |
| C=CCOC(=O)N1c2cc(Cl)ccc2NC(=S)[C@@H]1CC [Example 114] | 1.6 ng/mL (≈ 0.00515 µM) | 22.5 nM |
| CCOC(=O)N1c2cc(F)ccc2NC(=O)[C@@H]1CC [Example 78] | < 80 ng/mL | 300 nM |
| CC[C@H]1C(=S)Nc2ccc(F)cc2N1C(=O)OC(C)C [Example 95] | 2 ng/mL (≈ 0.00675 µM) |  |
| C=C(C)OC(=O)N1c2cc(Cl)ccc2NC(=O)[C@@H]1CC [Example 57] | 1 ng/mL (≈ 0.00339 µM) | 33.9 to 339 nM |
| CSC[C@H]1C(=O)Nc2ccc(Cl)cc2N1C(=O)OC(C)C [Example 38] | < 1 ng/mL | 15.2 nM |
| CCOc1ccc2c(c1)N(C(=O)OC(C)C)[C@@H](CSC)C(=O)N2 [Example 52] | < 8 ng/mL | 29.5 to 295 nM |
| CCOC(=O)N1c2cc(F)ccc2NC(=S)[C@@H]1CC [Example 134] | 8 ng/mL (≈ 0.0283 µM) | 10.6 nM |
| CC[C@H]1C(=O)Nc2ccc(F)cc2N1C(=O)OC(C)C [Example 39] | 8 ng/mL (≈ 0.0285 µM) | 71.4 nM |
| COC[C@H]1C(=S)Nc2ccc(OC)cc2N1C(=O)OC(C)C [Example 104] | 8 ng/mL (≈ 0.0247 µM) | 108 nM |
| CC[C@H]1C(=S)Nc2ccc(Cl)cc2N1C(=O)OC(C)C [Example 91] | 2 ng/mL (≈ 0.00639 µM) | 12.8 nM |
| CC[C@H]1C(=S)Nc2ccccc2N1C(=O)OC(C)C [Example 86] | 1 ng/mL (≈ 0.00359 µM) | 39.5 nM |
| C=C(C)OC(=O)N1c2cc(Cl)ccc2NC(=S)[C@@H]1CC [Example 113] | 0.8 ng/mL (≈ 0.00257 µM) | 19.3 nM |
| CC[C@H]1C(=S)Nc2ccc(F)cc2N1C(=O)OCC(C)C [Example 140j] | 10 ng/mL (≈ 0.0322 µM) | 48.3 nM |
| CSC[C@H]1C(=S)Nc2ccc(O)cc2N1C(=O)OC(C)C [Example 140a] | 40 ng/mL (≈ 0.123 µM) | 285 nM |
| COc1ccc2c(c1)N(C(=O)OCC(C)C)[C@@H](CSC)C(=S)N2 [Example 140g] | 40 ng/mL (≈ 0.113 µM) | 48 nM |
| CCC[C@H]1C(=O)Nc2ccccc2N1C(=O)OC(C)C [Example 31] | 50 ng/mL (≈ 0.181 µM) |  |
| COc1ccc2c(c1)N(C(=O)OC(C)C)[C@@H](CSC)C(=S)N2 [Example 85, S-4-Isopropoxycarbonyl-6-methoxy-3-(methylthiomethyl)-3,4-dihydroquinoxalin-2(1H)-thione] | 2 ng/mL (≈ 0.00587 µM) | 23.5 nM |
| CCC(C)OC(=O)N1c2cc(F)ccc2NC(=S)[C@@H]1CC (stereo partly shown) [Example 140k] | 8 ng/mL (≈ 0.0258 µM) | 51.5 nM |
| CCC[C@H]1C(=S)Nc2ccc(OC)cc2N1C(=O)OC(C)C [Example 100] | 4 ng/mL (≈ 0.0124 µM) | 49.6 nM |
| CCCCOC(=O)N1c2cc(F)ccc2NC(=S)[C@@H]1CC [Example 140i] | 10 ng/mL (≈ 0.0322 µM) | 70.9 nM |
| CSC[C@H]1C(=S)Nc2ccccc2N1C(=O)OC(C)C [Example 90] | < 8 ng/mL | 16.1 nM |
| CC[C@H]1C(=O)Nc2ccccc2N1C(=O)OC(C)C [Example 30] | < 40 ng/mL |  |
| CCC[C@H]1C(=O)Nc2ccc(OC)cc2N1C(=O)OC(C)C [Example 44] | < 80 ng/mL |  |
| C=C(C)OC(=O)N1c2cc(OC)ccc2NC(=S)[C@@H]1CSC [Example 124] | < 8 ng/mL |  |
